US5147876A, “2,6-di,2,4,6-, 2,5,6-tri and 2,4,5,6-tetra-substituted pyrimidines, their pharmaceutically acceptable salts, pharmaceutical compositions containing same and their use in the treatment of neurological diseases” (Mitsui Petrochemical Industries, Ltd., priority 1988, dated 1992)

Test system: neuro-2a (mouse neuroblastoma cells)
Test: Action on neuro-2a: proportion of cells containing outgrown neurites
Type: cell-based
Conditions: mean ± S.D.
Description: The effects of the compounds of this invention on neuroblastoma cells were examined by the following method.
Mouse neuro 2a cells in the logarithmic growth period in the Dulbecco's modified Eagle's medium DMEM, containing 100 units/ml of penicillin G sodium and 100 micrograms/ml of streptomycin sulfate]containing 10 % of FCS were seeded in a 48-well plate so that the number of cells was 1,000 cells/well, and cultured for one day in 0.25 ml of the culture fluid in each well in an incubator containing 5 % of carbon dioxide gas in air at 37° C. Then, a 4 % aqueous glutaraldehyde solution in the same amount as a medium (0.25 ml) was added, and the culture fluid was left to stand at room temperature for 2 hours to fix the cells. After washing with water, a 0.05 % aqueous solution of methylene blue was added to stain the cells Under a microscope, the number of cells containing outgrown neurites (cells having at least one neurite with a length of at least two times as large as the long diameter of the cell) was counted visually, and the proportion of these cells in the entire cells was calculated. The well was observed over 5 or more visual fields (at least 2 % of the entire surface area of the well) continuous to the left and right from a mark put at the center of the well, and more than 200 cells was counted. One drug compound was used in 6 different concentrations at most, and three runs were conducted for each concentrations.

Row | Compound | Number of cells having neurites with a length at least two times the diameter of each cell/total number of cells (0.03 mM) [%] | Number of cells having neurites with a length at least two times the diameter of each cell/total number of cells (0.1 mM) [%] | Number of cells having neurites with a length at least two times the diameter of each cell/total number of cells (0.3 mM) [%] | also measured
1 | CC1CCN(c2nccc(N(C(=O)c3ccccc3)c3ccccc3)n2)CC1.Cc1ccc(S(=O)(=O)O)cc1 [Compound 150] | 9.3 ± 1.9 | 13.6 ± 1.2 | 6.6 ± 3.0 | –
2 | CN(C(=O)c1ccccc1)c1ccnc(N2CCC(c3ccccc3)CC2)n1 [Compound 165] | – | 41.0 ± 0.7 | 12.4 ± 1.8 | –
3 | CN(C(=O)c1ccccc1)c1ccnc(N2CCC(c3ccccc3)CC2)n1 [Compound 166] | – | 36.8 ± 7.1 | 13.4 ± 4.0 | –
4 | CN(C(=O)c1ccccc1)c1ccnc(N2CCC(c3ccccc3)CC2)n1 [Compound 167] | – | 22.5 ± 3.4 | 9.3 ± 2.3 | –
5 | Cc1ccc(C(=O)N(C)c2ccnc(N3CCC(c4ccccc4)CC3)n2)cc1 [Compound 171-3] | – | 28.8 ± 3.1 | 19.5 ± 7.0 | –
6 | CN(C(=O)c1ccccc1)c1ccnc(N2CCC(c3ccccc3)CC2)n1 [Compound 171] | – | 37.1 ± 1.9 | 8.8 ± 2.6 | –
7 | CN(C(=O)c1ccccc1)c1ccnc(N2CCC(C(=O)c3ccccc3)CC2)n1 [Compound 306] | 7.7 ± 0.5 | 2.8 ± 0.8 | – | –
8 | CN(C(=O)c1ccccc1)c1nccc(N2CCC(C(C)(C)C)CC2)n1 [Compound 620] | 4.0 ± 1.3 | – | – | Number of cells having neurites with a length at least two times the diameter of each cell/total number of cells (0.01 mM): 4.7 ± 0.4%
9 | CCN(C(=O)c1ccccc1)c1nccc(N2CCC(c3ccccc3)CC2)n1 [Compound 636] | 12.1 ± 3.4 | 8.9 ± 5.2 | – | –
10 | CC(C)N(C(=O)c1ccccc1)c1nccc(N2CCC(c3ccccc3)CC2)n1 [Compound 652] | 6.1 ± 0.6 | 12.5 ± 2.8 | – | –
11 | CC(C)N(Cc1ccccc1)c1nccc(N(C)C(=O)c2ccccc2)n1 [Compound 662] | – | 3.1 ± 1.6 | 2.6 ± 0.9 | –
12 | CN(C(=O)c1ccc([N+](=O)[O-])cc1)c1nccc(N2CCC(c3ccccc3)CC2)n1 [Compound 676] | – | – | 6.0 ± 1.1 | Number of cells having neurites with a length at least two times the diameter of each cell/total number of cells (1 mM): 4.2 ± 2.1%
13 | CN(C(=O)c1ccccc1)c1nccc(N2CCC(Cc3ccccc3)CC2)n1 [Compound 692] | 5.8 ± 0.9 | 11.1 ± 2.9 | – | –
14 | COC(=O)c1cnc(NC(C)C)nc1C [Compound 800, 2-isopropylamino-4-methyl-5-methoxycarbonylpyrimidine] | – | – | 11.4 ± 1.2 | Number of cells having neurites with a length at least two times the diameter of each cell/total number of cells (1 mM): 25.7 ± 1.9%; Number of cells having neurites with a length at least two times the diameter of each cell/total number of cells (3 mM): 22.3 ± 0.7%; Number of cells having neurites with a length at least two times the diameter of each cell/total number of cells (10 mM): 16.9 ± 0.8%
15 | CCOC(=O)c1cnc(N2CCCCC2)nc1CSC [Compound 816] | 4.7 ± 2.1 | 4.0 ± 0.3 | – | –
16 | CNc1ccnc(N2CCCc3ccccc32)n1 [Compound 1034] | 3.9 ± 2.8 | 7.6 ± 2.1 | 11.3 ± 1.6 | –
17 | CNc1ccnc(N2CCc3ccccc3C2)n1 [Compound 1038] | 2.2 ± 0.4 | 2.9 ± 0.3 | – | –
18 | CNc1nc(N2CCC(c3ccccc3)CC2)ncc1C [Compound 1098] | 10.2 ± 0.9 | 5.7 ± 2.0 | – | Number of cells having neurites with a length at least two times the diameter of each cell/total number of cells (0.01 mM): 5.3 ± 1.4%

Row | Compound | Number of cells having neurites with a length at least two times the diameter of each cell/total number of cells (0.03 mM) [%] | Number of cells having neurites with a length at least two times the diameter of each cell/total number of cells (0.1 mM) [%] | Number of cells having neurites with a length at least two times the diameter of each cell/total number of cells (0.3 mM) [%] | also measured
19 | CNc1nc(N2CCCc3ccccc32)ncc1C [Compound 1102] | – | 11.9 ± 0.7 | 10.1 ± 3.0 | –
20 | CNc1nc(C)cc(N2CCCCC2)n1 [Compound 1110] | 4.4 ± 0.3 | 6.3 ± 4.4 | 16.5 ± 2.1 | Number of cells having neurites with a length at least two times the diameter of each cell/total number of cells (0.01 mM): 3.4 ± 1.1%
21 | CNc1nccc(N2CCC(c3ccccc3)CC2)n1 [Compound 1122] | 10.2 ± 3.8 | – | – | Number of cells having neurites with a length at least two times the diameter of each cell/total number of cells (0.01 mM): 4.2 ± 2.1%
22 | CNc1nccc(N2CCc3ccccc3C2)n1 [Compound 1130] | 1.8 ± 0.5 | 2.0 ± 0.3 | – | –
23 | Cc1ccc(S(=O)(=O)N(C)c2ccnc(N3CCC(c4ccccc4)CC3)n2)cc1 [Compound 2012] | 6.6 ± 1.2 | – | 6.6 ± 3.1 | –
24 | CN(C(=O)c1ccccc1)c1ccnc(N2CCC(N3CCCCC3)CC2)n1 [Compound 2052] | 3.7 ± 0.4 | – | – | Number of cells having neurites with a length at least two times the diameter of each cell/total number of cells (0.01 mM): 4.6 ± 2.1%
25 | CN(C(=O)c1ccccc1)c1ccnc(N2CCC(O)CC2)n1 [Compound 2060] | 3.6 ± 0.1 | – | – | Number of cells having neurites with a length at least two times the diameter of each cell/total number of cells (1 mM): 7.6 ± 0.7%
26 | CN(C(=O)c1ccccc1)c1ccnc(N2CCC(c3ccc([N+](=O)[O-])cc3)CC2)n1 [Compound 2076] | 1.9 ± 1.3 | – | – | Number of cells having neurites with a length at least two times the diameter of each cell/total number of cells (0.01 mM): 4.8 ± 1.4%
27 | CCOC(=O)C1CCN(c2nccc(N(C)C(=O)c3ccccc3)n2)CC1 [Compound 2100] | 4.4 ± 0.8 | 4.7 ± 1.4 | – | –
28 | CN(C(=O)c1ccccc1)c1ccnc(N(Cc2ccccc2)Cc2ccccc2)n1 [Compound 2108] | 4.8 ± 2.0 | – | – | Number of cells having neurites with a length at least two times the diameter of each cell/total number of cells (1 mM): 13.5 ± 0.1%
29 | CN(C(=O)c1ccccc1)c1ccnc(N2CCC(N(C)C)CC2)n1 [Compound 2148] | 4.5 ± 1.3 | 4.2 ± 1.2 | – | –
30 | CN(C(=O)c1ccccc1)c1ccnc(N2CCC(NC(=O)c3ccccc3)CC2)n1 [Compound 2174] | – | – | – | Number of cells having neurites with a length at least two times the diameter of each cell/total number of cells (0.01 mM): 2.5 ± 1.0%
31 | CN(C(=O)c1ccccc1)c1ccnc(NC2CCNCC2)n1 [Compound 2188] | – | 2.4 ± 0.9 | 3.8 ± 1.1 | –
32 | CN(C(=O)c1ccc(NC(=O)c2ccccc2)cc1)c1ccnc(N2CCC(c3ccccc3)CC2)n1 [Compound 2194] | – | 9.5 ± 3.5 | 7.6 ± 2.8 | –
33 | CN(C(=O)c1ccccc1)c1ccnc(NC2CCN(C(=O)c3ccccc3)CC2)n1 [Compound 2202] | – | 2.2 ± 2.0 | – | –
34 | CN(C(=O)c1ccccc1)c1ccnc(N2CCC(OC(=O)c3ccccc3)CC2)n1 [Compound 2226] | 6.4 ± 3.3 | 15.4 ± 3.9 | – | –
35 | CN1CCN(C(=O)N(C)c2ccnc(N3CCC(c4ccccc4)CC3)n2)CC1 [Compound 2234] | 5.1 ± 3.2 | 5.7 ± 2.8 | – | –
36 | CCCCNC1CCN(c2nccc(N(C)C(=O)c3ccccc3)n2)CC1 [Compound 2260] | 2.2 ± 0.3 | 2.3 ± 0.5 | – | –
